# Measurements: patent publication US9353415B2, “Methods for functional analysis of high-throughput experimental data and gene groups identified therefrom” (Thomson Reuters (Scientific) LLC, priority 2006, dated 2016)
# System: CREB pathway
# Assay: microarray gene expression from the livers of rats exposed to drugs, mapped on pathway maps (signature networks method)
# Format: in vivo
# Details: rat liver, treated vs untreated, custom cDNA two-channel arrays, five repeats; no threshold for fold change and P-values; FIG. 16C
# Method: This dataset contains microarray gene expression from the livers of rats exposed to three drugs: phenobarbital, mestranol, and tamoxifen. The data were produced by custom cDNA two-channel arrays. Five biological repeats were performed for each treatment and a set of five samples from the untreated animals were analyzed.
# A pre-computed comprehensive set of overlapping canonical pathways derived from 450 signaling and metabolic pathway maps manually created using a general database, MetaCore™ was obtained. These pathways then were used as a framework for mapping experimental datasets as well as to calculate the network modules most relevant to specific pathways (FIG. 15). The maps feature approximately 3,000 proteins and over 2,000 overlapping human pathways. On these maps, typical signaling inputs (indicated by block arrows) are identified. The network modules were then generated as chains of interactions/reactions initiated at one of the signaling inputs and followed down to the last protein identified in the canonical pathway; such termini often are transcription factors and their targets. These pathways represent linear modules of cell signaling, usually parts of signaling cascades between secondary messengers and transcription factors. […]
# FIG. 16C is the top scored CREB pathway map for the genes content of the network A. Gene expression was mapped without thresholds. […]
smiles,measurement,value
CC/C(=C(\c1ccccc1)c1ccc(OCCN(C)C)cc1)c1ccccc1 [tamoxifen],"direction of expression (fold change) of genes on the highest scored pathway map, CREB pathway",down-regulated
